Data from patent US5750578A, “Use of betulin and analogs thereof to treat herpesvirus infection” (priority 1997, dated 1998).
Entries after “also recorded” stand apart in the source; their conditions may differ.

Legend:
HSV-1 [1] = assay: Cell protection test, HSV-1 in HEp2 cells; assay type: cell-based, herpes simplex virus type 1 (KOS, patent strain); settings: duplicate wells, 72 hours
Description: (§1) Two different HSV-1 and HSV-2 strains were used: HSV-1 (KOS), HSV-2 (MS). Also, HSV-1 (patent strain) and HSV-2 (patent strain) were purchased from ATCC and propagated in HEp2 cell monolayers. Virus stocks were prepared by adsorbing 1 ml of virus suspension containing 1 ×10^5 virus particles for one hour in HEp2 cells at 37° C. in 5% carbon dioxide tension. This stock was incubated under similar conditions for 48 hours after adding 15 ml of MEM containing the usual supplements.
(§2) Infected cells were harvested and disrupted through three cycles of freezing and thawing. The contents in the flasks were pooled, and the supernatant virus particles were collected by centrifugation at 3000 rpm for 5 minutes. The virus suspension dispensed in 2.5 ml aliquot each and […] using both microtitration and plaque counting methods. HSV-1 and HSV-2 containing 5×10^4 PFU/ml and 5.25×10^4 PFU/ml respectively were stored at -80° C. until needed.
(§3) A plus 3 (+++) was given to the wells in which betulin solutions protected the cells without any cytopathic effect as compared to cell and betulin control.

HSV-2 [2] = assay: Cell protection test, HSV-2 in HEp2 cells; assay type: cell-based, herpes simplex virus type 2 (MS, patent strain); settings: duplicate wells, 72 hours
Description: as §1, §2, §3

HSV-1 [3] = assay: Cell protection test, HSV-1 in Vero cells; assay type: cell-based, herpes simplex virus type 1 (KOS, patent strain); settings: duplicate wells, 72 hours
Description: as §1, §2, §3

HSV-2 [4] = assay: Cell protection test, HSV-2 in Vero cells; assay type: cell-based, herpes simplex virus type 2 (MS, patent strain); settings: acyclovir 25 mg; duplicate wells; 72 hours
Description: as §1, §2, §3

HSV-1 [5] = assay: Cell protection test, HSV-1 in SK-N-MC cells; assay type: cell-based, herpes simplex virus type 1 (KOS, patent strain); settings: duplicate wells, 72 hours
Description: as §1, §2, §3

HSV-2 [6] = assay: Cell protection test, HSV-2 in SK-N-MC cells; assay type: cell-based, herpes simplex virus type 2 (MS, patent strain); settings: duplicate wells, 72 hours
Description: as §1, §2, §3

HEp2 cells = assay: Cytotoxicity test and drug controls, HEp2 cells; assay type: cell-based, human; parameters: Betulin control (monolayer rating) / Acyclovir control (monolayer rating): key to the marks not given beside the values
Vero cells = assay: Cytotoxicity test and drug controls, Vero cells; parameters: Betulin control (monolayer rating) / Acyclovir control (monolayer rating): key to the marks not given beside the values
Description: Human epithelial type 2 (HEp2), African green monkey kidney (Vero) and human neuroblastoma (SK-N-MC) cells were purchased from American Type Culture Collection (ATCC-Rockville, Md.). These cells were grown at 37° C. in the presence of 5% carbon dioxide tension in minimal essential medium (MEM-Eagle) containing 0.1 mM of nonessential amino acids, and Earl's BSS 90% supplemented with 5% Newborn Calf Serum (NCS) and 1% penicillin/streptomycine sulfate. For SK-N-MC cells, 1.0 mM sodium pyruvate, and 10% NCS was used. The stock cells were prepared and stored at -80° C. in 5% dimethyl sulfoxide (DMSO).
A betulin solution containing 0.5 mg of betulin/1000 ml of water was filtered using a […] pore size filter (Gelman) attached to a 35 ml volume syringe to remove bacteria and other larger organisms. This sterile sample was further diluted to 1:2, 1:4, and 1:8 using distilled, deionized sterile water.
The cytotoxic effect of betulin was observed by using a 24-well microtiter plate. Each well contained 1 ml of MEM with supplements containing 1200 HEp2, Vero or SK-N-MC cells. The plates were incubated for 48 hours at 37° C. in 5% carbon dioxide tension and followed by replacement of the medium with 1.0 ml of MEM with specific supplements.
A 1.0 ml of sterile betulin solution in duplicate at varying two-fold dilution were placed into labeled wells. No betulin solution was placed in the control wells containing a monolayer of cells. These microtiter plates were incubated at 37° C. and 5% carbon dioxide tension for 48 hours and rated as follows.
Similarly, a plus 2 (++) for 75% monolayer, a plus one (+) for 50% monolayer, and a plus minus (±) for 25% monolayer development. A minus rating means that most of the cells are abnormal, whereas a double minus (--) rating was given to wells containing all abnormal cells due to cytotoxic effect of betulin solution. Noncytotoxic dilutions and the highest dilution of betulin showing cytotoxicity, if any, were used in the protection tests. […]

SK-N-MC cells = assay: Cytotoxicity test and drug controls, SK-N-MC cells; assay type: cell-based, human; parameters: Betulin control (monolayer rating) / Acyclovir control (monolayer rating): key to the marks not given beside the values
HSV-1 and HSV-2 = assay: Cell protection tests, overall, HSV-1 and HSV-2 in three cell lines; assay type: cell-based
Description: as §1, §2, §3

[7] = acyclovir 50 mg/l and two-fold serial dilution
[8] = betulin 0.5 mg/l and two-fold dilutions, 48 hours

Nc1nc2c(ncn2COCCO)c(=O)[nH]1 [Acyclovir, reference compound]
Effectiveness against HSV-1 in HEp2 cells (acyclovir) (HSV-1 [1]; acyclovir 25 mg [mg/l]): ++± | Effectiveness against HSV-2 in HEp2 cells (acyclovir) (HSV-2 [2]; acyclovir 25 mg): ++± | Effectiveness against HSV-1 in vero cells (acyclovir) (HSV-1 [3]; acyclovir 25 mg): ++± | Effectiveness against HSV-2 in vero cells (acyclovir) (HSV-2 [4]): ++± | Effectiveness against HSV-1 in SK-N-MC cells (acyclovir) (HSV-1 [5]; acyclovir 25 mg): ++± | Effectiveness against HSV-2 in SK-N-MC cells (acyclovir) (HSV-2 [6]; acyclovir 25 mg): ++± | Acyclovir control (monolayer rating) (HEp2 cells): +++ | Cytotoxic effect (HEp2 cells; [7]): no cytotoxic effect was observed | Acyclovir control (monolayer rating) (Vero cells): +++ | Acyclovir control (monolayer rating) (SK-N-MC cells): +++ | Cytotoxic effect (SK-N-MC cells; [7]): no cytotoxic effect was observed

C=C(C)[C@@H]1CC[C@]2(CO)CC[C@]3(C)[C@H](CC[C@@H]4[C@@]5(C)CC[C@H](O)C(C)(C)[C@@H]5CC[C@]43C)[C@@H]12 [Betulin, lup-20(29)-ene-3β, 28-diol]
Effectiveness of betulin against HSV-1 in HEp2 cells (HSV-1 [1]; betulin 0.5 mg [mg/l]): ++± | Effectiveness of betulin against HSV-2 in HEp2 cells (HSV-2 [2]; betulin 0.25 mg): ++± | Effectiveness of betulin against HSV-1 in vero cells (HSV-1 [3]; betulin 0.5 mg): ++± | Effectiveness of betulin against HSV-1 in SK-N-MC cells (HSV-1 [5]; betulin 0.5 mg): ++± | Effectiveness of betulin against HSV-2 in SK-N-MC cells (HSV-2 [6]; betulin 0.5 mg): ++± | Cytotoxic effect (HEp2 cells; [8]): not toxic; also recorded: did not show any cytotoxic effect | Betulin control (monolayer rating) (HEp2 cells; control wells, highest concentration of betulin, Tables 1 and 2): +++ | Cytotoxic effect (Vero cells; [8]): not toxic; also recorded: did not show any cytotoxic effect | Betulin control (monolayer rating) (Vero cells; control wells, highest concentration of betulin, Tables 3 and 4): +++ | Cytotoxic effect (SK-N-MC cells; [8]): not toxic; also recorded: did not show any cytotoxic effect | Betulin control (monolayer rating) (SK-N-MC cells; control wells, highest concentration of betulin, Tables 5 and 6): +++ | Effectiveness in protecting indicator cell monolayers compared to acyclovir (HSV-1 and HSV-2; 0.5 mg/l betulin vs 25 mg/l ACV, three cell types): as effective as 25 mg/l of ACV | Spread of virus from the infected cells (HSV-1 and HSV-2; after 72 hours): did not spread from the infected cells | Effectiveness against HSV-2 compared to HSV-1 (HSV-1 and HSV-2; three different cell lines): slightly more effective in protecting all three different cell lines against HSV-2 strains than HSV-1 strains; also recorded: more effective against HSV-2 compared to HSV-1
